Measurements as given in the supplement of paper PMC11451515.

Tested on: NOMO1
Test: cell viability relative to DMSO control; higher = less cytotoxic
Details: 48 h
Outline: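 Three leukemia lines were tested: NOMO1 and SEM at 500 cells/well and P12-Ichikawa at 1000 cells/well. Each was adapted for at least four passages in each medium and seeded in 5 μl in 1536-well plates, and library compounds in DMSO were pin-dosed from 47 μM to 0.79 nM in 11 threefold steps. After 48 h at 37°C, CellTiter-Glo One luminescence was read. Viability is a percentage relative to DMSO wells on each plate, with cell-free wells as background.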

[1] = HPLM + 10% dialyzed FBS, 0.000781 µM
[2] = HPLM + 10% dialyzed FBS, 0.00234 µM
[3] = HPLM + 10% dialyzed FBS, 0.00702 µM
[4] = HPLM + 10% dialyzed FBS, 0.0211 µM
[5] = HPLM + 10% dialyzed FBS, 0.0632 µM
[6] = HPLM + 10% dialyzed FBS, 0.19 µM
[7] = HPLM + 10% dialyzed FBS, 0.569 µM
[8] = HPLM + 10% dialyzed FBS, 1.71 µM
[9] = HPLM + 10% dialyzed FBS, 5.12 µM
[10] = HPLM + 10% dialyzed FBS, 15.4 µM
[11] = HPLM + 10% dialyzed FBS, 46.1 µM
[12] = RPMI 5 mM glucose + 10% FBS, 0.000781 µM
[13] = RPMI 5 mM glucose + 10% FBS, 0.00234 µM
[14] = RPMI 5 mM glucose + 10% FBS, 0.00702 µM
[15] = RPMI 5 mM glucose + 10% FBS, 0.0211 µM
[16] = RPMI 5 mM glucose + 10% FBS, 0.0632 µM
[17] = RPMI 5 mM glucose + 10% FBS, 0.19 µM
[18] = RPMI 5 mM glucose + 10% FBS, 0.569 µM
[19] = RPMI 5 mM glucose + 10% FBS, 1.71 µM
[20] = RPMI 5 mM glucose + 10% FBS, 5.12 µM
[21] = RPMI 5 mM glucose + 10% FBS, 15.4 µM
[22] = RPMI 5 mM glucose + 10% FBS, 46.1 µM
[23] = RPMI 5 mM glucose + 10% dialyzed FBS, 0.000781 µM
[24] = RPMI 5 mM glucose + 10% dialyzed FBS, 0.00234 µM
[25] = RPMI 5 mM glucose + 10% dialyzed FBS, 0.00702 µM
[26] = RPMI 5 mM glucose + 10% dialyzed FBS, 0.0211 µM
[27] = RPMI 5 mM glucose + 10% dialyzed FBS, 0.0632 µM
[28] = RPMI 5 mM glucose + 10% dialyzed FBS, 0.19 µM
[29] = RPMI 5 mM glucose + 10% dialyzed FBS, 0.569 µM
[30] = RPMI 5 mM glucose + 10% dialyzed FBS, 1.71 µM
[31] = RPMI 5 mM glucose + 10% dialyzed FBS, 5.12 µM
[32] = RPMI 5 mM glucose + 10% dialyzed FBS, 15.4 µM
[33] = RPMI 5 mM glucose + 10% dialyzed FBS, 46.1 µM

Row | SMILES | cell viability [1] [%] | cell viability [2] [%] | cell viability [3] [%] | cell viability [4] [%] | cell viability [5] [%] | cell viability [6] [%] | cell viability [7] [%] | cell viability [8] [%] | cell viability [9] [%] | cell viability [10] [%] | cell viability [11] [%] | cell viability [12] [%] | cell viability [13] [%] | cell viability [14] [%] | cell viability [15] [%] | cell viability [16] [%] | cell viability [17] [%] | cell viability [18] [%] | cell viability [19] [%] | cell viability [20] [%] | cell viability [21] [%] | cell viability [22] [%] | cell viability [23] [%] | cell viability [24] [%] | cell viability [25] [%] | cell viability [26] [%] | cell viability [27] [%] | cell viability [28] [%] | cell viability [29] [%] | cell viability [30] [%] | cell viability [31] [%] | cell viability [32] [%] | cell viability [33] [%]
1 | CN[C@H]1[C@H](O[C@@H]2[C@H](O[C@@H]3[C@@H](O)[C@@H](O)[C@@H](NC(=N)N)[C@@H](O)[C@H]3NC(=N)N)O[C@H](C)[C@@]2(O)C=O)O[C@@H](CO)[C@@H](O)[C@H]1O | 117 | 115 | 118 | 111 | 130 | 120 | 101 | 96.1 | 89 | 66.9 | 23.7 | 109 | 113 | 112 | 109 | 112 | 104 | 103 | 111 | 96.6 | 101 | 26.1 | 106 | 107 | 103 | 113 | 114 | 105 | 102 | 109 | 105 | 87.1 | 26.2
2 | CCc1cccc2c3c([nH]c12)C(CC)(CC(=O)O)OCC3 (stereo not given) | 98.5 | 98.5 | 122 | 105 | 100 | 113 | 88.4 | 97.8 | 97.4 | 100 | 84.5 | 95 | 92.7 | 95.9 | 102 | 85 | 90.4 | 98.1 | 93.2 | 93.6 | 84.7 | 87.2 | 100 | 94.3 | 95.1 | 87.3 | 82.4 | 77.7 | 89.3 | 87.5 | 92.9 | 82.9 | 97.1
3 | CCCCCCCCOc1ccccc1C(=O)Nc1ccc(C(=O)OCC[N+](C)(CC)CC)cc1 | 101 | 104 | 103 | 104 | 110 | 99.5 | 85.8 | 100 | 78.1 | 88.1 | 28.7 | 84.6 | 94.7 | 93.2 | 83.8 | 93.4 | 86.4 | 90.1 | 83.7 | 82 | 81 | 21.7 | 92.8 | 93.5 | 96.6 | 90.1 | 98.3 | 91.9 | 83.7 | 84.4 | 73.9 | 88.8 | 31.8
4 | Cc1ccc(NC(=O)Nc2cc(C(F)(F)F)ccc2F)cc1Nc1ccc2c(c1)NC(=O)/C2=C\c1ccc[nH]1 |  |  |  |  |  |  |  |  |  |  |  | 108 | 126 | 118 | 124 | 133 | 139 | 149 | 161 | 136 | 132 | 40.4 | 116 | 124 | 140 | 140 | 149 | 150 | 149 | 160 | 154 | 115 | 28.1
5 | NC(=O)c1ccc(-c2nc(-c3ccc4c(c3)OCO4)c(-c3ccccn3)[nH]2)cc1 | 114 | 135 | 118 | 134 | 118 | 132 | 119 | 123 | 121 | 120 | 124 | 121 | 112 | 127 | 113 | 126 | 111 | 124 | 109 | 108 | 125 | 112 | 117 | 108 | 117 | 114 | 116 | 110 | 119 | 116 | 109 | 113 | 105
6 | Cn1cnc(-c2cc3nccc(Oc4ccc(NC(=S)NC(=O)Cc5ccccc5)cc4F)c3s2)c1 | 72.5 | 93.2 | 84.1 | 92.4 | 99.9 | 97.1 | 91.3 | 86 | 77.9 | 62 | 25.8 | 77.3 | 88.3 | 77.4 | 86.2 | 89.8 | 96.4 | 89.6 | 87.5 | 82.2 | 85.2 | 20.5 | 84 | 81.2 | 68.1 | 86 | 93.6 | 101 | 83 | 90 | 86.1 | 88.1 | 26.7
7 | CCOC(CN1C(=O)[C@](CC(=O)Nc2ccc(C)cc2)(NC(=O)Nc2ccc(C)cc2)c2ccccc21)OCC | 109 | 112 | 125 | 113 | 123 | 122 | 126 | 124 | 106 | 83.8 | 70.7 | 110 | 107 | 106 | 107 | 113 | 104 | 123 | 125 | 113 | 103 | 49.8 | 99.2 | 101 | 105 | 99.8 | 114 | 115 | 109 | 115 | 99.3 | 93 | 60.3
8 | C=CC(=O)Nc1cccc(Oc2nc(Nc3ccc(N4CCN(C)CC4)cc3OC)ncc2Cl)c1 | 64.3 | 69.5 | 78.3 | 79.1 | 81.9 | 80.6 | 73.9 | 76.5 | 54.7 | 45.1 | 33.3 | 72.9 | 74.3 | 79.3 | 78.8 | 87.1 | 102 | 82.1 | 52.1 | 67.3 | 62.1 | 55.8 | 69.6 | 77.9 | 79.4 | 85.8 | 80.6 | 79.2 | 77.3 | 87.9 | 66.1 | 72.2 | 45.5
9 | Oc1cc2c(cc1O)C1c3ccc(O)c(O)c3OCC1(O)C2 (stereo not given) | 95.1 | 89.1 | 104 | 93.5 | 111 | 107 | 102 | 115 | 111 | 105 | 110 | 102 | 92.3 | 101 | 102 | 91.9 | 96.6 | 97.7 | 94.9 | 106 | 92.2 | 93.9 | 77.6 | 87.2 | 104 | 97.2 | 99 | 106 | 107 | 110 | 103 | 103 | 102
10 | CN1C2=CC(=O)/C(=N/NC(N)=O)C=C2CC1S(=O)(=O)[O-].[Na+] (stereo not given) | 87 | 105 | 105 | 104 | 111 | 135 | 116 | 122 | 125 | 128 | 92.5 | 108 | 109 | 111 | 115 | 117 | 128 | 120 | 117 | 122 | 116 | 111 | 105 | 112 | 114 | 111 | 118 | 126 | 124 | 123 | 128 | 119 | 103
11 | O=[S+]([O-])(/N=C/c1c(O)ccc2ccccc12)c1cccs1 |  |  |  |  |  |  |  |  |  |  |  | 113 | 126 | 111 | 124 | 129 | 129 | 114 | 113 | 126 | 107 | 126 |  |  |  |  |  |  |  |  |  |  | 
12 | O=C(O)[C@@H](c1ccc(OCc2ccc3ccccc3n2)cc1)C1CCCC1 | 118 | 114 | 118 | 126 | 106 | 119 | 115 | 119 | 110 | 109 | 90.5 | 104 | 117 | 107 | 109 | 125 | 111 | 104 | 121 | 113 | 102 | 120 | 119 | 101 | 122 | 113 | 123 | 119 | 103 | 108 | 106 | 100 | 95.4
13 | Cn1cc(-c2cnn3c(N)c(Br)c([C@@H]4CCCNC4)nc23)cn1 | 99.8 | 107 | 111 | 102 | 101 | 99 | 93.2 | 47.7 | 21.8 | 15.8 | 27.6 | 99.7 | 88 | 88.8 | 85.2 | 89.7 | 89.3 | 84.2 | 60.3 | 16.4 | 11.3 | 12.8 | 78.7 | 93.1 | 84.1 | 98.2 | 95.3 | 92.5 | 81.2 | 33.4 | 20.1 | 16.5 | 19
14 | CC(Cc1ccc(O)c(O)c1)(NN)C(=O)O (stereo not given) | 104 | 109 | 102 | 103 | 117 | 113 | 107 | 99.3 | 115 | 121 | 92.3 | 114 | 118 | 113 | 126 | 115 | 103 | 105 | 109 | 112 | 110 | 106 | 114 | 106 | 129 | 128 | 123 | 106 | 103 | 99.8 | 116 | 106 | 94.7
15 | COCCCOc1ccnc(C[S+]([O-])c2nc3ccccc3[nH]2)c1C (stereo not given) | 92.5 | 116 | 113 | 123 | 123 | 122 | 116 | 127 | 130 | 119 | 117 | 126 | 118 | 110 | 109 | 131 | 124 | 105 | 126 | 115 | 118 | 124 | 108 | 114 | 119 | 120 | 133 | 119 | 119 | 121 | 120 | 115 | 129
16 | CNC(=O)c1ccc(N2C(=S)N(c3ccc(C#N)c(C(F)(F)F)c3)C(=O)C2(C)C)cc1F | 87.7 | 114 | 105 | 125 | 117 | 127 | 120 | 115 | 143 | 127 | 111 | 93 | 124 | 121 | 118 | 125 | 111 | 111 | 121 | 123 | 121 | 115 | 102 | 112 | 103 | 113 | 121 | 116 | 124 | 126 | 115 | 121 | 114
